According to US11795165B2, “Tetrahydro-benzoazepine glycosidase inhibitors” (Asceneuron SA, priority 2018, dated 2023):

Biological target: His-Tagged hOGA (human O-GlcNAcase) (Homo sapiens (Human), UniProt O60502)
Assay: Human O-GlcNAcase enzyme inhibition assay (OGA enzyme inhibition assay)
Assay type: biochemical
Conditions: His-Tagged hOGA 20 nM, FL-GlcNAc 10 μM, 60 min at room temperature, pH 6.5; activity classes
Description: Example B01: Human O-GlcNAcase Enzyme Inhibition Assay
5 μl of the appropriate concentration of a solution of inhibitor in McIlvaine's Buffer (pH 6.5) in 2% DMSO (for a dose response curve calculation) is added into each well of a 384-well plate (Greiner, 781900). Then, 20 nM of His-Tagged hOGA and 10 μM of FL-GlcNAc (Fluorescein mono-beta-D-(2-deoxy-2-N-acetyl) glucopyranoside; Marker Gene Technologies Inc, M1485) were added to the 384-well plate for a final volume of 20 μl. After incubation for 60 min at room temperature, the reaction was terminated by the addition of 10 μL of stop buffer (200 mM glycine, pH 10.75). The level of fluorescence (Δexc 485 nm; (Δemm 520 nm) was read on a PHERAstar machine. The amount of fluorescence measured was plotted against the concentration of inhibitor to produce a sigmoidal dose response curve to calculate an IC50. All individual data was corrected by subtraction of the background (Thiamet 3 uM=100% inhibition) whilst 0.5% DMSO was considered as the control value (no inhibition).

Chain of His-Tagged hOGA (human O-GlcNAcase) (O60502 whole entry): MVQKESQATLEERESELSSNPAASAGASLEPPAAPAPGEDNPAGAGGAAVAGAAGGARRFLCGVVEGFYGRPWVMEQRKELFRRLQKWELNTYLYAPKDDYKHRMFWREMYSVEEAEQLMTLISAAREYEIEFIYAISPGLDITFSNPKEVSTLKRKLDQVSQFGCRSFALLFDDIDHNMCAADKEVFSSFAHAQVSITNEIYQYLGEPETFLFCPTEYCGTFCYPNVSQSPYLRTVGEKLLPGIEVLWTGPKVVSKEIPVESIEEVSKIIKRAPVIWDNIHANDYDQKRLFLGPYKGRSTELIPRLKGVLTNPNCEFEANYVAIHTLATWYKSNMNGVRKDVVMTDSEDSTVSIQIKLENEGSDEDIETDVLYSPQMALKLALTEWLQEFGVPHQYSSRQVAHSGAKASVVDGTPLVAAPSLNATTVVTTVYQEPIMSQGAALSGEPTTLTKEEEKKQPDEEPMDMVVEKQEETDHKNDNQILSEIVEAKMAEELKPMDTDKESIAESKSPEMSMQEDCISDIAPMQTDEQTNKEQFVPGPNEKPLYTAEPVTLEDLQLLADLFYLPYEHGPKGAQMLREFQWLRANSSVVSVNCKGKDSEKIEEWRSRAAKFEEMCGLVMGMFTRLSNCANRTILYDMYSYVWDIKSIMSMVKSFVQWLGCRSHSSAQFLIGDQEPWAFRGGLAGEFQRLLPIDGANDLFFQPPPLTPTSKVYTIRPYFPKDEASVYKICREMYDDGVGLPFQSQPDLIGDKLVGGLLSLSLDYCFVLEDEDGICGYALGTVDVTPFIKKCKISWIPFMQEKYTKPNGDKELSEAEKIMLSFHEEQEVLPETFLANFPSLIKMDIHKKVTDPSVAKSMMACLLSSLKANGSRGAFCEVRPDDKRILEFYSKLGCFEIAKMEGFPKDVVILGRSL

IC50, < 50 nM:
COc1ccc2c(n1)CCN(C(C)c1ccc3scnc3c1)CC2 (racemic) [Example 31, 5-(1-(2-methoxy-5,6,8,9-tetrahydro-7H-pyrido[2,3-d]azepin-7-yl)ethyl)benzo[d]thiazole]
CC(c1ccc2scnc2c1)N1CCc2ccc(O)cc2CC1 (racemic) [Example 33, 3-(1-(benzo[d]thiazol-5-yl)ethyl)-2,3,4,5-tetrahydro-1H-benzo[d]azepin-7-ol]
COc1ccc2c(c1)CCN(C(C)c1cnc3c(c1)OCC3)CC2 (racemic) [Example 34, 6-(1-(7-methoxy-1,2,4,5-tetrahydro-3H-benzo[d]azepin-3-yl)ethyl)-2,3-dihydrofuro[3,2-b]pyridine]
CC(c1ccc2scnc2c1)N1CCc2ccc(S(C)(=N)=O)cc2CC1 (racemic) [Example 37]
CC(=O)Nc1ccc2c(c1)CCN(C(C)c1ccc3scnc3c1)CC2 (racemic) [Example 43]
CC(c1ccc2scnc2c1)N1CCc2cc(S(C)(=O)=O)cnc2CC1 (racemic) [Example 51]
CC(c1ccc2scnc2c1)N1CCc2cc(S(C)(=N)=O)cnc2CC1 (racemic) [Example 52]
Cc1cc(Oc2ccc3c(c2)CCN(C(C)c2ccc4scnc4c2)CC3)ccn1 (racemic) [Example 60]
Cc1cc(Oc2ccc3c(c2)CCN(C(C)c2ccc4scnc4c2)CC3)nc(C)n1 (racemic) [Example 62]
CC(=O)Nc1cnc2c(c1)CCN(C(C)c1ccc3scnc3c1)CC2 (racemic) [Example 92]
CC(c1ccc2scnc2c1)N1CCc2cnc(N)nc2CC1 (racemic) [Example 108]
CC(c1ccc2scnc2c1)N1CCc2ccc(-c3cnn(C)c3)cc2CC1 (racemic) [Example 109]
CSc1ccc2c(c1)CCN(C(C)c1ccc3scnc3c1)CC2 (racemic) [Example 111]
CC(c1ccc2scnc2c1)N1CCc2cc(N)cnc2CC1 (racemic) [Example 117]
CC(c1ccc2scnc2c1)N1CCc2cc(NS(=O)(=O)C3CC3)cnc2CC1 (racemic) [Example 120]
CC(c1ccc2scnc2c1)N1CCc2ccccc2CC1 (single isomer, unassigned) [Example 21]
CSc1ccc2c(c1)CCN(C(C)c1ccc3scnc3c1)CC2 (single isomer, unassigned) [Example 119]
COc1ccc2c(c1)CCN(C(C)c1ccc3nsnc3c1)CC2 (centres unmarked) [Example 1, 5-(1-(7-methoxy-1,2,4,5-tetrahydro-3H-benzo[d]azepin-3-yl)ethyl)benzo[c][1,2,5]thiadiazole]
COc1ccc2c(c1)CCN([C@@H](C)c1ccc3scnc3c1)CC2 [Example 5, (S)-5-(1-(7-methoxy-1,2,4,5-tetrahydro-3H-benzo[d]azepin-3-yl)ethyl)benzo[d]thiazole]
COc1ccc2c(c1)CCN(C(C)c1ccc3c(c1)OCC3)CC2 (centres unmarked) [Example 7, 3-(1-(2,3-dihydrobenzofuran-6-yl)ethyl)-7-methoxy-2,3,4,5-tetrahydro-1H-benzo[d]azepine]
CC(c1ccc2scnc2c1)N1CCc2ccc(S(C)(=N)=O)cc2CC1 (centres unmarked) [Example 113]

IC50, 200 to 1000 nM:
CC(c1ccc2scnc2c1)N1CCCc2ncc([N+](=O)[O-])cc2C1 (racemic) [Example 106]
CC(=O)Nc1ccc2c(c1)CCCN(C(C)c1ccc3scnc3c1)C2 (racemic) [Example 107]
CC(c1ccc2scnc2c1)N1CCCc2cc(-c3cnn(C)c3)ccc2C1 (racemic) [Example 110]
CSc1ccc2c(c1)CCCN(C(C)c1ccc3scnc3c1)C2 (racemic) [Example 112]
CC(c1ccc2scnc2c1)N1CCCc2ncc(NS(=O)(=O)C3CC3)cc2C1 (racemic) [Example 121]
COc1ccc2c(c1)CCN(C(C)c1ccc3scnc3c1)CC2 (single isomer, unassigned) [Example 6]
CC(c1ccc2scnc2c1)N1CCc2ccccc2CC1 (single isomer, unassigned) [Example 22]
CC(C)COc1ccc2c(c1)CCN(C(C)c1ccc3scnc3c1)CC2 (single isomer, unassigned) [Example 27, (R)-5-(1-(7-isobutoxy-1,2,4,5-tetrahydro-3H-benzo[d]azepin-3-yl)ethyl)benzo[d]thiazole or (S)-5-(1-(7-isobutoxy-1,2,4,5-tetrahydro-3H-benzo[d]azepin-3-yl)ethyl)benzo[d]thiazole]

IC50, 50 to 200 nM:
COc1ccc2c(c1)CCN(C(C)c1ccc3scnc3c1)CC2O (racemic) [Example 116]
COc1ccc2c(c1)CCN(C(C)c1ccc3c(c1)OCC3)CC2 (single isomer, unassigned) [Example 9]

IC50, 1000 to 10000 nM:
COc1ccc2c(c1)CCN(Cc1ccc3scnc3c1)C(C)C2 (racemic) [Example 29, 5-((7-methoxy-2-methyl-1,2,4,5-tetrahydro-3H-benzo[d]azepin-3-yl)methyl)benzo[d]thiazole]
COc1ccc2c(c1)CCN(Cc1ccc3c(c1)OCCO3)C(C)C2 (racemic) [Example 30, 3-((2,3-dihydrobenzo[b][1,4]dioxin-6-yl)methyl)-7-methoxy-2-methyl-2,3,4,5-tetrahydro-1H-benzo[d]azepine]
CC(c1ccc2scnc2c1)N1CCc2ccc(-c3ccccn3)cc2CC1 (racemic) [Example 32, 5-(1-(7-(pyridin-2-yl)-1,2,4,5-tetrahydro-3H-benzo[d]azepin-3-yl)ethyl)benzo[d]thiazole]
CC(=O)Nc1ncc(CN2CCCc3ccccc3C2C)s1 (racemic) [Example 122]
COc1ccc2c(c1)CCN(C(C)c1ccc3nsnc3c1)CC2 (single isomer, unassigned) [Example 3]
CC(c1ccc2scnc2c1)N1CCc2ccc(S(C)(=N)=O)cc2CC1 (single isomer, unassigned) [Example 115]
CSc1ccc2c(c1)CCN(C(C)c1ccc3scnc3c1)CC2 (single isomer, unassigned) [Example 118]
